Data set [1] has as its target Cytochrome P450 3A4 (Homo sapiens, UniProt P08684).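 Further: CYP3A4 tested as one member of a cytochrome P450 panel screen.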
Data set [2] relates to HT-1080. Put plainly: HT1080 cell viability loss – fluorescence readout (AID 620). The following applies: Homo sapiens. The data set is classed as functional, cell-based.
Data set [3] in a line: HIV-1 AD8 envelope cell-cell fusion blockers – cherry-pick, dose response (AID 652062).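 Further: luciferase signal from cell-cell fusion driven by HIV-1 clade B AD8 Env; potency is for inhibitors of fusion seen as a drop in luminescence.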 It counts as functional, cell-based.
In data set [4] the test system is Jurkat. Put plainly: blockers of NF-kB activation in T cells – Jurkat, luciferase reporter, luminescence, B- and T-cell, dose response (AID 489004).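 Further: NF-kB luciferase reporter Jurkat cells stimulated with PMA plus ionomycin.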 The data set is classed as functional, cell-based. As to conditions: Homo sapiens. For orientation: In a reporter assay the amount or activity of a reporter protein is the signal.
Data set [5] can be described thus: HEK-293T viability loss, compound-treated – cell-based, uHTS hits, cytotoxicity control for B/T-cell NF-kB inhibitor project, dose response (AID 489019).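 Further: IC50 reflects cytotoxicity as loss of cell viability.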 The data set is classed as functional.
Data set [6] has as its system A-375. The data set is described as follows: MITF: Counter assay: A375 proliferation Measured in Cell-Based System Using Plate Reader - 2084-03_Inhibitor_Dose_DryPowder_Activity. [Related pubchem assays (depositor defined):AID488944]. The data set is classed as functional. As to conditions: Homo sapiens.
The nature of data set [7]: off-target signal loss in HeLa-CEM21 co-culture – HeLa F-luc CTL cells, cherry-picked, counter-screen for HIV-1 Env fusion inhibitor project, dose response (AID 652040).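 Further: potency for signal decrease marking cytotoxic or nonspecific inhibition.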 The data set is classed as functional, cell-based. A general note: A counterscreen serves to expose hits that act by an unwanted route or on another target.
Data set [8] deals with A-375. Put plainly: proliferation inhibition in MITF-low A375 cells – cell-based, cherry-pick samples, set 2, counter-screen for MITF modulator project, dose response (AID 540335). The data set is classed as functional. The following applies: Homo sapiens.
Data set [9] deals with T1, Microphthalmia-associated transcription factor (Homo sapiens, UniProt O75030).
T1 sequence (O75030 whole entry): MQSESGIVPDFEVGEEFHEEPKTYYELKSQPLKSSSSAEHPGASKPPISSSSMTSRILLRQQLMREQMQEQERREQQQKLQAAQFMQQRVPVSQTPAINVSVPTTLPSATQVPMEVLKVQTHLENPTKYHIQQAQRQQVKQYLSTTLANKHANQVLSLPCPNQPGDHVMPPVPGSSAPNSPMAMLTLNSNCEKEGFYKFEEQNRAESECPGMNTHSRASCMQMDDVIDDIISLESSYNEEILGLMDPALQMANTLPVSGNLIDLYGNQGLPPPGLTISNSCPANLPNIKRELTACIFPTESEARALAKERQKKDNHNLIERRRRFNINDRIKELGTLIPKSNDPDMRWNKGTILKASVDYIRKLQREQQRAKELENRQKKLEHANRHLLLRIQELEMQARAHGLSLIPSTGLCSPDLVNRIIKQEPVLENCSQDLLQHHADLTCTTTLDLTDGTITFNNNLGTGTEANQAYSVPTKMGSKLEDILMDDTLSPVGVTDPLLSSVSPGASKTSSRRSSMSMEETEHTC
Put plainly: reducers of TRPM1 reporter luminescence, concentration series – cell-based, SK-MEL-5, cherry-picked, set 3, MITF inhibitor project, dose response (AID 493073).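 Further: SK-MEL-5 melanoma cells with luciferase driven by the MITF target TRPM1 promoter.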 It counts as functional.

A short description of data set [10]: blockers of HIV-1 ZM109 envelope-driven cell-cell fusion – HeLa effector, CEM target cells, luciferase, cherry-pick, dose response (AID 652058).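 Further: luciferase signal from HIV-1 Env mediated cell-cell fusion of effector and target cells.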 The data set is classed as functional, cell-based.
Data set [11] deals with T2, Luciferin 4-monooxygenase (Photinus pyralis, UniProt P08659). The data set is described as follows: Counter Screen for Luciferase-based Assay Positives. [Related pubchem assays: 620, 618, 411 ].
T2 sequence (P08659 whole entry, the tested form may be a part): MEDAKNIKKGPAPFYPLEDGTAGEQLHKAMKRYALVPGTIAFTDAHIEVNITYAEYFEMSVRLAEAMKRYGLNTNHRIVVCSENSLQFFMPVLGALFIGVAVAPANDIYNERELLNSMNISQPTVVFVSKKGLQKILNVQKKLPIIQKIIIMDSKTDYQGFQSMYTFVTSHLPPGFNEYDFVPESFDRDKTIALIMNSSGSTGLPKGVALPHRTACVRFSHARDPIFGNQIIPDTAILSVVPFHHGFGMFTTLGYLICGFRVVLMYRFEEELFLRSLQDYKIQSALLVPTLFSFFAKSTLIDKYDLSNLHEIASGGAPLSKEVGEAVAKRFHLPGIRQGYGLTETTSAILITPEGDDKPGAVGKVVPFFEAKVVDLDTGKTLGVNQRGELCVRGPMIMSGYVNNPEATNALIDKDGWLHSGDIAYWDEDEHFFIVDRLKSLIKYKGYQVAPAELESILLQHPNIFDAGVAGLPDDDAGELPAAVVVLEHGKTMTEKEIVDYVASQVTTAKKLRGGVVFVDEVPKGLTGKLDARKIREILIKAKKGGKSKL
Data set [12] in a line: blockers of HIV-1 envelope-mediated cell-cell fusion – cherry-pick, dose response (AID 652057). The data set is classed as functional, cell-based.
Data set [13] concerns the target T2, Luciferin 4-monooxygenase. Put plainly: inhibition of purified Photinus pyralis luciferase – biochemical, luminescence, dose response (AID 1891).
A short description of data set [14]: Luminescence Cell-Based Dose Confirmation HTS to Identify Inhibitors of Platelet Dense Granule Release. [Related pubchem assays: 1663 (Primary HTS), 1678 (Summary of Project)]. The data set is classed as functional.
Data set [15] relates to HeLa. Put plainly: ATP-based viability loss in HeLa cells – cell-based, CellTiter-Glo luminescence, cherry-pick samples, cytotoxicity control for MITF activator project, dose response (AID 540259). The following applies: Homo sapiens. It counts as functional. (Cellular ATP, detected with luciferase, serves as a proxy for viable cell number.)
Data set [16] has as its target T3, Intestinal-type alkaline phosphatase (Homo sapiens, UniProt P09923). Put plainly: inhibition of human intestinal alkaline phosphatase – biochemical, luminescent, uHTS hits, set 2, dose response (AID 488793). The data set is classed as functional.
Data set [17] has as its target T3, Intestinal-type alkaline phosphatase. The data set is described as follows: Dose Response confirmation of uHTS hits from a small molecule inhibitors of human intestinal alkaline phosphatase via a luminescent assay. [Related pubchem assays (depositor defined):AID2544, AID2574]. It counts as functional.
The target in data set [18] is Intestinal-type alkaline phosphatase (Mus musculus, UniProt P24822). The data set is described as follows: PubChem AID 488874. It counts as functional.
Sequence of Intestinal-type alkaline phosphatase (Mus musculus, UniProt P24822) (P24822 whole entry): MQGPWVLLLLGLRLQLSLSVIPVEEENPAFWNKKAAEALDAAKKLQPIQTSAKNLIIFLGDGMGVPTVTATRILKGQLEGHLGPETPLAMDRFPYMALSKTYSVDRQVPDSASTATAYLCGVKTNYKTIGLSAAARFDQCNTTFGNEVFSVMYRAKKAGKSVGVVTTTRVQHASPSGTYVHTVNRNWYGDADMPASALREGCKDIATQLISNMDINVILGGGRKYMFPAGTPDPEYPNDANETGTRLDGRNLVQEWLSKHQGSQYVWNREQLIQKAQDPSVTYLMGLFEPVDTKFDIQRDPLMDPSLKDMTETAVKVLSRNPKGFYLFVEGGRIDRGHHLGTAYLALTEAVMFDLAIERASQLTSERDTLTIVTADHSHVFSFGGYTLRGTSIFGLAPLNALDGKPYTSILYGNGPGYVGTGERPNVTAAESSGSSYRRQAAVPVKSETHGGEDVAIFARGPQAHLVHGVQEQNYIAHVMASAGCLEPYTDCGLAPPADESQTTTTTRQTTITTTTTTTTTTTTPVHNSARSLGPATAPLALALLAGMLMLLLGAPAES
For data set [19], the target named is T4, Histone-lysine N-methyltransferase NSD2 (Homo sapiens, UniProt O96028).
T4 sequence (O96028 whole entry): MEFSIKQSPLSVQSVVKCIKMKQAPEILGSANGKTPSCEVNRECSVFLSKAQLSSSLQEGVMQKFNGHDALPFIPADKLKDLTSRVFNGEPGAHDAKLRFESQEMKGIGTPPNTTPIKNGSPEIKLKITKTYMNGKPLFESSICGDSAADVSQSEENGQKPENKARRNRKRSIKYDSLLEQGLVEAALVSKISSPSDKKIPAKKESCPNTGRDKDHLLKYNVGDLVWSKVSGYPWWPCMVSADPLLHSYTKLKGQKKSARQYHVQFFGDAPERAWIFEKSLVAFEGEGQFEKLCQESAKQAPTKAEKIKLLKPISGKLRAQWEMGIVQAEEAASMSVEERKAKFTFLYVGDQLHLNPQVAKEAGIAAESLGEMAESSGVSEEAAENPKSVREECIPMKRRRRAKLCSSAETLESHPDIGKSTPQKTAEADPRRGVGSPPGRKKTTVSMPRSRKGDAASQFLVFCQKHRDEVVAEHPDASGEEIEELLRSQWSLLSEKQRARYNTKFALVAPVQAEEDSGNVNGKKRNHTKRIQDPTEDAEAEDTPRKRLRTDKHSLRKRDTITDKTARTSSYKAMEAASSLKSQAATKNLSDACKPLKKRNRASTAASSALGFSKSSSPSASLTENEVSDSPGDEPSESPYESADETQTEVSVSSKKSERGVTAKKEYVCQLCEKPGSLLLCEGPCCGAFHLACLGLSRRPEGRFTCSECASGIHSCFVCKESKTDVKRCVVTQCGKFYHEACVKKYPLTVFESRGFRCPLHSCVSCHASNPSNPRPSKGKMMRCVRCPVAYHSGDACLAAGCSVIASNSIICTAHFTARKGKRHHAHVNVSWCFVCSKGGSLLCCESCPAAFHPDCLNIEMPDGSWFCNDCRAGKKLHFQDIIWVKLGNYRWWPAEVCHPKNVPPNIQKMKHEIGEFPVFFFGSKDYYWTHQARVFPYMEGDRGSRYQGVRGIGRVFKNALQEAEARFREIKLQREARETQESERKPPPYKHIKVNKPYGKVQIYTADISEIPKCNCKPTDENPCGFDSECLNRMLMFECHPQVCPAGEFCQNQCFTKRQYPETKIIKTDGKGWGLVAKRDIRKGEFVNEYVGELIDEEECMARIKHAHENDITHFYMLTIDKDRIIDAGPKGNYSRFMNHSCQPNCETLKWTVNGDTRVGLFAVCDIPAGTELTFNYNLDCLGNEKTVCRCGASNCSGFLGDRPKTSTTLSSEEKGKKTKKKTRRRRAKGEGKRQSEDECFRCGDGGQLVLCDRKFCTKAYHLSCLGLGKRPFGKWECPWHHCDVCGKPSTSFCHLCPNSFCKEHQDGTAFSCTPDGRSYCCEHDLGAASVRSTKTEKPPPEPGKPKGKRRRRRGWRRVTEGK
It counts as biochemical.

The target in data set [20] is Eukaryotic translation initiation factor 4E (Mus musculus, UniProt P63073). Put plainly: blockers of eIF4G binding by eIF4E – biochemical, TR-FRET, dose response (AID 855).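 Further: potency for disrupting eIF4E binding to eIF4GI seen as loss of FRET.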 The data set is classed as functional.
Sequence of Eukaryotic translation initiation factor 4E (P63073 whole entry): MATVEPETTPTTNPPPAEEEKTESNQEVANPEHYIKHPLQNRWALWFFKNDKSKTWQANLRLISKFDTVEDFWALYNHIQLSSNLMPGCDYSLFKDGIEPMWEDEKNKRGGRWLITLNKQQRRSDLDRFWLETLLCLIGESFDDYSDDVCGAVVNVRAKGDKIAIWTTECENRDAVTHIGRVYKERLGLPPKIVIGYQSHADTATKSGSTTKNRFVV
Data set [21] has as its target T5, Mannose-6-phosphate isomerase (Homo sapiens, UniProt P34949).
T5 sequence (P34949 whole entry): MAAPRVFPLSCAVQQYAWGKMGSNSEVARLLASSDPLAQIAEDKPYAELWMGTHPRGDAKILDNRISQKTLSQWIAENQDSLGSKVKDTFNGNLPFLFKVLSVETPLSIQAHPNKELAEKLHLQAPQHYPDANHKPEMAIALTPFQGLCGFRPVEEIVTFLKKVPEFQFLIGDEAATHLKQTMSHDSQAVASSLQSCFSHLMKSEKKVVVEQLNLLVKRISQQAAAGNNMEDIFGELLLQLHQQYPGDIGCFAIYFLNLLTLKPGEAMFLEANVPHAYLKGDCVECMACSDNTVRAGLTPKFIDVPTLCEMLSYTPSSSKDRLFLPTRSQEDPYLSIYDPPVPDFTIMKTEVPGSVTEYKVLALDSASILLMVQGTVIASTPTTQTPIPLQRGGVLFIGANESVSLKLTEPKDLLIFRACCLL
Put plainly: MPI enzyme activity inhibition – biochemical, fluorescence intensity, coupled assay, primary screen (AID 1209).

In data set [22] the target is T6, Alkaline phosphatase, tissue-nonspecific isozyme (Homo sapiens, UniProt P05186).
T6 sequence (P05186 whole entry): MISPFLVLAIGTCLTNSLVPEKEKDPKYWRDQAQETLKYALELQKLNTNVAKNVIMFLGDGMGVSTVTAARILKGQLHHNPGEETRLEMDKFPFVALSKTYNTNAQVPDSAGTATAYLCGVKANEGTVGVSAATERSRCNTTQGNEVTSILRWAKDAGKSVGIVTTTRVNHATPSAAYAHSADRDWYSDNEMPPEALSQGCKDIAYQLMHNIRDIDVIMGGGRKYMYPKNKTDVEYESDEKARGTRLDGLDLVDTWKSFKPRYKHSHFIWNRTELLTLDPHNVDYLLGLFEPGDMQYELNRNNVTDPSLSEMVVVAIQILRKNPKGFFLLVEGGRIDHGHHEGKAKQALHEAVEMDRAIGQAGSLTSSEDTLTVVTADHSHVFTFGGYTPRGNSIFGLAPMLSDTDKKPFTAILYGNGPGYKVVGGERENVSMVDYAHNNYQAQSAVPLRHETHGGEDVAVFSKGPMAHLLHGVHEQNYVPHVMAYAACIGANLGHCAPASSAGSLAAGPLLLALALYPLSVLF
Put plainly: inhibition of tissue-nonspecific alkaline phosphatase – biochemical, dose response (AID 488882). It counts as functional.

The target of data set [23] is T7, Calpain-2 catalytic subunit (Sus scrofa, UniProt P43367).
T7 sequence (P43367 whole entry): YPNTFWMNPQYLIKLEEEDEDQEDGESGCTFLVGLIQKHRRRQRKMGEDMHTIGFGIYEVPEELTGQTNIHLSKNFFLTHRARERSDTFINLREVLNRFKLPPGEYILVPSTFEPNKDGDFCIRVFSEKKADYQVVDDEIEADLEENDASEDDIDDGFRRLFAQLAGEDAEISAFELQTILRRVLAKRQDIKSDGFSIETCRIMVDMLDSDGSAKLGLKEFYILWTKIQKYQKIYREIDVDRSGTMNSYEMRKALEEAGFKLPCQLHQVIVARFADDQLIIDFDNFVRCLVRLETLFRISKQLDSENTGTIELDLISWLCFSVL
The data set is described as follows: m-calpain protease blockers, concentration series – biochemical, fluorogenic peptide substrate, dose response (AID 1420). The data set is classed as functional.

Data set [24] is described as follows: Luminescence Cell-Based Dose Retest to Confirm Inhibitors of Cancer Stem Cells. [Related pubchem assays (depositor defined):AID2717, AID2721]. It counts as functional. The following applies: Homo sapiens.
Data set [25] is described as follows: viability loss of HMLE_sh_eGFP cells – cell-based, luminescence, counter-screen for HMLE_sh_ECad selective toxicity project, dose response (AID 463074).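 Further: HMLE human mammary epithelial cells expressing control shRNA against eGFP.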 The data set is classed as functional, Homo sapiens.

Each structure is given as a SMILES string. The source made the active and inactive calls. Where only a bound is given, the exact number is not on record here.

T3 sequence (P09923 whole entry): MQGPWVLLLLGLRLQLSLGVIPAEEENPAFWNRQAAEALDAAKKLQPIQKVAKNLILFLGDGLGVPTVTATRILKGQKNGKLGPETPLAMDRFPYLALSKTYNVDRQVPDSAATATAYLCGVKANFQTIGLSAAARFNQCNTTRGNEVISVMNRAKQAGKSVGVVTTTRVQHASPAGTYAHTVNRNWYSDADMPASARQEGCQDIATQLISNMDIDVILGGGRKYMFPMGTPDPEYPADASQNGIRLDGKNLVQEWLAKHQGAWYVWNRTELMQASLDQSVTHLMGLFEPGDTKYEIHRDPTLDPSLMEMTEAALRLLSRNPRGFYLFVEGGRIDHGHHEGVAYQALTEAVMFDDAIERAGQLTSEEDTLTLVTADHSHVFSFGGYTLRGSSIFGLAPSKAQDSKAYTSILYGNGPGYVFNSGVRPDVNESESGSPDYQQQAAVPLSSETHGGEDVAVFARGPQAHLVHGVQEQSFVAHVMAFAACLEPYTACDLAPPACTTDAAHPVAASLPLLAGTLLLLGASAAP
Sequence of Cytochrome P450 3A4 (P08684 whole entry): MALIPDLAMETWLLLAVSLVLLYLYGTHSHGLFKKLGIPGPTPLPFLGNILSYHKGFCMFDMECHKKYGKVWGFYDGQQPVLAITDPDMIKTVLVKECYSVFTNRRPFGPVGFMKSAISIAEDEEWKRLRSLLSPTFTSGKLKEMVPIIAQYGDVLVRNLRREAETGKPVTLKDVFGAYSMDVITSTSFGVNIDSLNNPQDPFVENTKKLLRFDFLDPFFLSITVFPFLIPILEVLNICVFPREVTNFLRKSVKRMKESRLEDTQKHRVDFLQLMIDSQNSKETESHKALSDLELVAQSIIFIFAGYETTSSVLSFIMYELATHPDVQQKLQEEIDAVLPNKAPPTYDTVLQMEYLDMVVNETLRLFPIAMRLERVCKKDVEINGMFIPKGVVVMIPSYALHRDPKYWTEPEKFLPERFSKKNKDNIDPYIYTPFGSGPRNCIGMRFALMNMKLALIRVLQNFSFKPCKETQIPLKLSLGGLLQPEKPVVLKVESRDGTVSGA

`O=C(c1cc(C(F)(F)F)cc(C(F)(F)F)c1)N1CCC2(CC1)CN(c1ccccc1)C2`: in data set [1], the AC50 result is “inconclusive”.

Consider `CC(C)(C)c1ccc(C(=O)N2CCCCCC2=O)cc1`, for which the EC50 was > 50 µM (not active) in data set [2] and 1.5 µM (active) in data set [11]. The concentration at half-maximal activity (AC50) is 4.27 µM (active) in data set [3]; > 35 µM (active) in data set [6]; 1.73 µM (active) in data set [7]; > 35 µM (active) in [8]; 1.12 µM (active) in data set [9]; 0.611 µM (active) in [10]. The AC50 in data set [12] is 2.77 µM (active). Moreover, the figures for the IC50 in data set [4] and in [5] were 0.38 µM (active) and > 80 µM (inactive), respectively.

Take `COc1ccc(C(=O)Nc2cc(OC)nc(OC)n2)cc1`: the EC50 was 16.3 µM (active) in [13] and 8.79 µM (active) in [14]. In data set [15], the AC50 was 178 µM (active).

Consider `CC[n+]1c(/C=C/c2c[nH]c3ccccc23)ccc2cc(C)ccc21`, for which the IC50 is 10.2 µM (active) in [16]; 9.63 µM (active) in data set [17]; 11 µM (active) in [18]; 50 µM (inactive) in data set [20]; > 50 µM (not active) in data set [21]; 10.8 µM (active) in data set [22]. Besides, the half-inhibitory concentration (IC50) in data set [23] was 24.6 µM (not active). The AC50 in data set [19] was > 20 µM (inactive).

Consider `CN(c1ccccc1)c1ccc(/C=C(\C#N)c2nnc3n2CCCCC3)cc1[N+](=O)[O-]`, for which the figures for the AC50 in data set [24] and in data set [25] were 0.597 µM (active) and 24.3 µM (active), respectively.

What is called AC50 is the concentration giving half of the maximal activity seen. A word on the EC50: it is the concentration at which the effect is half-maximal. Broadly, the IC50 is the concentration at which inhibition is half-maximal.

For the origin of these results see ChEMBL document CHEMBL1201862, “PubChem BioAssay data set” (2004).
